Assay results from patent US20120309744A1, “DOSING REGIMENS AND METHODS FOR TREATING OR PREVENTING HEPATOCELLULAR CARCINOMA” (NBI Pharmaceuticals, Inc., priority 2011, published 2012).

Columns and labels:
[1] = system: MMP-3 promoter; test: MMP promoter/luciferase reporter assay in transfected HCC cells; type: cell-based; settings: HepG2 cells, luciferase reporter
Description: To investigate the mechanism of suppression of MMP-1, -3 and -7 expression by MK4, HCC cells will be transiently transfected with MMP-1, -3 and -7 promoter/luciferase reporter plasmids and then treated with MK4.

[2] = system: MMP-1; test: Suppression of TPA-induced MMP expression; type: cell-based
Description: (§1) Since MK4 inhibits MMP-1, -3 and -7 mRNA expression, the ability of MK4 to suppress TPA-induced MMP expression will be investigated. […] MK4 also suppresses the MMP-1 and -3 protein expression induced by TPA.

[3] = system: MMP-3; test: Suppression of TPA-induced MMP expression; type: cell-based
Description: as §1

[4] = system: MMP-7; test: Suppression of TPA-induced MMP expression; type: cell-based
Description: as §1

[5] = system: hepatocellular carcinoma; test: Subject with hepatocellular carcinoma given oral MK4 (induction then maintenance); type: in vivo, human
Procedure: A subject suffering from hepatocellular carcinoma is administered oral MK4 (90 mg daily once a day). After the administration of MK4 for six weeks, tumor sizes will decrease and the diameter of the main tumor is smaller. […] This case report provides compelling evidence that MK4 may be useful in the treatment of HCC.

[6] = system: dysplastic nodule or early HCC; test: Subject with HCV-related liver cirrhosis and dysplastic nodule or early HCC given MK4 and an ACE-I; type: in vivo, human
Description: Treatment with MK4 and an ACE-I normalizes AFP and AFP-L3 tumor markers and the hepatic nodule disappears. A subject with hepatitis C virus (HCV)-related liver cirrhosis is diagnosed with what was termed a “dysplastic nodule or early HCC.” The diagnosis is based on enhanced computed tomography (CE-CT) study and elevations of the tumor markers alpha-fetoprotein (AFP) and lectin-reactive alpha-fetal protein (AFP-L3).

[7] = system: hepatocellular carcinoma; test: Randomized study of oral MK4 versus no MK4 in patients with hepatocellular carcinoma; type: in vivo, human
Procedure: Patients with hepatocellular carcinoma are randomized to receive oral MK4 (90 mg/day) or no MK4. All patients receive conventional therapy with percutaneous tumor ablation and/or transcatheter arterial embolization. The rate of portal vein invasion at 12 months of follow-up will be reduced in MK4 recipients as compared with controls.

[8] = after six weeks at 90 mg, additional twenty-two months at 45 mg daily once a day
[9] = after one-year combined treatment, MK-4 45 mg daily for additional 48 months, ACE-I halted
[10] = oral MK4 90 mg daily with ACE-I (e.g., perindopril; 4 mg/day)
[11] = after 12 months at 90 mg/day, additional twenty-two months at 45 mg daily once a day

CC(C)=CCC/C(C)=C/CC/C(C)=C/CC/C(C)=C/CC1=C(C)C(=O)c2ccccc2C1=O [MK4, menatetrenone]
MMP-3 promoter activity [1]: decrease MMP-3 promoter activity weakly | MMP-1 mRNA expression induced by TPA [2]: dose-dependently inhibits | MMP-1 promoter activity induced by TPA [2]: dose-dependently suppresses | MMP-1 protein expression induced by TPA [2]: suppresses | MMP-3 mRNA expression induced by TPA [3]: dose-dependently inhibits | MMP-3 promoter activity induced by TPA [3]: dose-dependently suppresses | MMP-3 protein expression induced by TPA [3]: suppresses | MMP-7 mRNA expression induced by TPA [4]: dose-dependently inhibits | MMP-7 promoter activity induced by TPA [4]: dose-dependently suppresses | recurrence [5, 8]: no signs of recurrence are observed | tumor markers [5, 8]: remain within the normal limits | diameter of the main tumor ([5]; oral 90 mg daily once a day for six weeks): smaller | serum level of AFP [6, 9]: remain in the normal range | serum level of AFP-L3 [6, 9]: remain in the normal range | serum level of AFP [6, 10]: gradually decrease | serum level of AFP-L3 [6, 10]: gradually decrease | rate of portal vein invasion ([7]; 12 months of follow-up, oral MK4 90 mg/day plus conventional therapy, versus controls): reduced | recurrence [7, 11]: no signs of recurrence are observed | tumor markers [7, 11]: remain within the normal limits
